The values that follow are results of earlier work, collected in patent publication US20050032876A1, “Pharmaceutical compositions comprising sumatriptan and metoclopramide, and methods of use thereof” (priority 2003, published 2005).

The conditions of the data set: rapidly pre-systemically metabolized; very short half-life of the order of only about 2 hours.

With `CNS(=O)(=O)Cc1ccc2[nH]cc(CCN(C)C)c2c1` [Sumatriptan], the half-life result is “about 2 hours”.
